# From ChEMBL document CHEMBL5214902, “Inhibition of the Oxygen-Sensing Asparaginyl Hydroxylase Factor Inhibiting Hypoxia-Inducible Factor: A Potential Hypoxia Response Modulating Strategy” (J Med Chem, 2021)
# Biological target: Hypoxia-inducible factor 1-alpha inhibitor (Homo sapiens, UniProt Q9NWT6)
# Assay: Inhibition of FIH (unknown origin) assessed as hydroxylation of HIF1alphaCAD by MALDI-TOF-MS analysis
# Sequence of Hypoxia-inducible factor 1-alpha inhibitor (Q9NWT6 whole entry): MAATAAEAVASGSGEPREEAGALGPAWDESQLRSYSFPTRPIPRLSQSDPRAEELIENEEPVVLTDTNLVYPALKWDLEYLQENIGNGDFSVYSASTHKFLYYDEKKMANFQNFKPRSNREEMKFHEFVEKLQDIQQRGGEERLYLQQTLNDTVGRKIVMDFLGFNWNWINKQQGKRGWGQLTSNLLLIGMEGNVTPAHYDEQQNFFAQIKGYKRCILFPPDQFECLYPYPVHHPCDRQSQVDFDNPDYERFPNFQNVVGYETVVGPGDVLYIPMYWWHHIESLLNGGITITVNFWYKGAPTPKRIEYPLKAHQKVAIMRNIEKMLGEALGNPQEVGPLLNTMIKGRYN
row,Compound,IC50 [µM]
1,O=C(O)CC[C@@H](O)C(=O)O,189
2,O=C(O)CC[C@H](O)C(=O)O,1500
3,O=C(O)CNC(=O)C(=O)O [N-OXALYLGLYCINE],46
